Laboratory results: patent US9403800B2, “Compounds for inhibition of cancer cell proliferation” (ChemRegen, Inc., priority 2012, dated 2016)

Legend:
[1] = system: Wnt transcriptional activity; assay: cell-based Wnt-luciferase reporter assay (SuperTOPFlash); conditions: for Relative potency for Wnt inhibition: relative to IWR-1, transfected HEK293A cells treated 12 hours, normalized to Renilla
Text: “Hit” 1 (FIG. 1) was identified as a Wnt inhibitor in a high-throughput screen of a library of 74,000 compounds using a cell-based Wnt-luciferase reporter assay as a readout of Wnt transcriptional activity. […] Wnt transcriptional activity was monitored in HEK-293T cells using a luciferase-based Wnt reporter (SuperTOPFlash) stimulated by Wnt3a conditioned media.
Medicinal chemical refinement of “hit” 1 was undertaken to improve its potency, maintain non-toxicity, increase water solubility and improve bioavailability. The SAR refinement of functional activity of “hit” 1 on the inhibition of the Wnt pathway was determined using a cell-based Wnt-luciferase reporter assay (described above). with Renilla Luciferase was used as a normalization for transfection efficiency. 6-8 hours after transfection, transfected HEK293A cells were treated with 1 and each analog for 12 hours. Both firefly and renilla luciferase activities were measured using a plate reader. A library of compounds was tested to obtain an SAR for 1. Compound 1 and its analogs are synthesized by a two step synthesis, Scheme 1.
Signaling was tested using a standard luciferase response system for canonical Wnt/β-catenin/TCF signaling. Briefly, we used a cell line that had been transfected with a luciferase reporter gene under the control of the response element of a transcription factor that is activated by association with β-catenin and is the target of canonical Wnt signaling.

MDA-MB-231 = assay: inhibition of proliferation (PicoGreen DNA assay), MDA-MB-231; assay type: cell-based; conditions: Homo sapiens
Experimental: (§1) We tested a subset of the 50 sulfonamide analogues for inhibition of proliferation of the MDA-MB-231, PC-3, MCF-7, and HCT-116 cancer cell lines. Following plating of the cells (24 hrs) in eight identical 96-well plates, the cells were treated with either Compound 1, 4, 15, or vehicle (DMSO) using a dose range of 1.6 to 5000 nM. After the lysis of cells, the cell lysate was resuspended in 25 μl PBS and the DNA was quantified using a PicoGreen assay by measuring fluorescence at Ex490 nm/Em535 nm. Cell proliferation was inhibited by Compounds 1, 4, and 15 for all the cancer cell lines tested with inhibition constants listed in Table 2.

MCF-7 = assay: inhibition of proliferation (PicoGreen DNA assay), MCF-7; assay type: cell-based; conditions: Homo sapiens, MCF7
Experimental: as §1

HCT-116 [2] = assay: inhibition of proliferation (PicoGreen DNA assay), HCT-116; assay type: cell-based; conditions: Homo sapiens
Experimental: as §1

PC-3 [3] = assay: stimulation of apoptosis, Caspase 3/7 cleavage (Caspase-Glo Kit), PC-3; assay type: cell-based; conditions: Homo sapiens, PC-3, 24 hrs
Experimental: (§2) Given Compounds 1, 4, and 15 inhibited cancer cell proliferation, we tested whether compounds 1, 4, and 15 stimulated cancer cell apoptosis. The MDA-MB-231, MCF-7, PC-3, and HCT-116 cells were treated with the indicated compounds for 24 hrs. over a dose range from 1.6 to 5000 nM. Apoptosis was then measured by monitoring Caspase 3/7 cleavage (Caspase-Glo Kit).

HCT-116 [4] = assay: stimulation of apoptosis, Caspase 3/7 cleavage (Caspase-Glo Kit), HCT-116; assay type: cell-based; conditions: Homo sapiens, HCT-116, 24 hrs
Experimental: as §2

PC-3 [5] = assay: viability (Alamar Blue), PC-3; assay type: cell-based; conditions: Homo sapiens; PC-3, 24 hrs
Experimental: (§3) Given Compounds 1, 4, and 15 inhibited cancer cell proliferation and stimulated apoptosis, we tested the effects compounds 1, 4, and 15 on cancer cell viability and cytotoxicity. The MDA-MB-231, MCF-7, PC-3, and HCT-116 cells were treated with the indicated compounds for 24 hrs. over a dose range from 1.6 to 5000 nM. Viability and cytotoxicity were then measured by the Alamar Blue and Vibrant Cytotox assays respectively.

LNCap = assay: viability (Alamar Blue), LNCap; assay type: cell-based; conditions: Homo sapiens, 24 hrs
HCT-116 [6] = assay: viability (Alamar Blue), HCT-116; assay type: cell-based; conditions: Homo sapiens; HCT-116, 24 hrs
Experimental: as §3

[7] = cytotoxicity (Vibrant Cytotox assay), LNCap; assay type: cell-based; conditions: human, LNCap cells
[8] = cytotoxicity (Vibrant Cytotox assay), HCT-116; assay type: cell-based; conditions: human, HCT-116 cells; HCT-116, 24 hrs
Experimental: as §3

[9] = cytotoxicity (Vibrant Cytotox assay), MDA-MB-231; assay type: cell-based; conditions: human, MDA-MB-231 cells; MDA-MB-231, 24 hrs
Experimental: as §3

[10] = system: Endogenous Target Genes for Wnt & Apoptotic Pathways in MDA-MB 231; assay: qPCR of Wnt and pro-apoptotic target genes, MDA-MB 231; assay type: cell-based; parameters: concentration or dose not given beside the values; conditions: MDA-MB 231, 24 hrs, qPCR normalized to 36B4
Experimental: (§4) Given the effects of Compounds 1, 4, and 15 on biological functions (e.g., proliferation, viability, and apoptosis) in several cancer cell lines, we tested the effects of compounds 1, 4, and 15 on regulation of endogenous Wnt and pro-apoptotic gene expression. MDA-MB-231, MCF-7, PC-3, and HCT-116 cancerncells were treated with the indicated compounds for 24 hrs. over a dose range from 1.6 to 5000 nM. Gene expression was measured using qPCR, normalized to the housekeeping gene, 36B4, and calculated % change relative to DMSO control. NC, no change.

[11] = system: Endogenous Target Genes for Wnt & Apoptotic Pathways in MCF-7; assay: qPCR of Wnt and pro-apoptotic target genes, MCF-7; assay type: cell-based; parameters: MYC expression, % change relative to DMSO control / BAX expression, % change relative to DMSO control / BAK expression, % change relative to DMSO control / BBC3 expression, % change relative to DMSO control / FOS expression, % change relative to DMSO control: concentration or dose not given beside the values; conditions: MCF-7, 24 hrs, qPCR normalized to 36B4
Experimental: as §4

[12] = system: Endogenous Target Genes for Wnt & Apoptotic Pathways in HCT-116; assay: qPCR of Wnt and pro-apoptotic target genes, HCT-116; assay type: cell-based; parameters: MYC expression, % change relative to DMSO control / CCDN1 expression, % change relative to DMSO control / BAX expression, % change relative to DMSO control / BBC3 expression, % change relative to DMSO control / FOS expression, % change relative to DMSO control: concentration or dose not given beside the values; conditions: HCT-116, 24 hrs, qPCR normalized to 36B4
Experimental: as §4

Row | Compound | IC50 (MDA-MB-231) [nM] | IC50 (MCF-7) [nM] | IC50 (HCT-116 [2]) [nM] | IC50 (PC-3 [3]) [nM] | IC50 (HCT-116 [4]) [nM] | IC50 (PC-3 [5]) [nM] | IC50 (LNCap) [nM] | IC50 (HCT-116 [6]) [nM] | IC50 at 24 h [7] [nM] | IC50 at 24 h [8] [nM] | IC50 at 24 h [9] [nM] | BAK expression, % change relative to DMSO control [10] [%] | BAX expression, % change relative to DMSO control [10] [%] | BBC3 expression, % change relative to DMSO control [10] [%] | CCDN1 expression, % change relative to DMSO control [10] [%] | JUN expression, % change relative to DMSO control [10] [%] | MYC expression, % change relative to DMSO control [10] [%] | BAK expression, % change relative to DMSO control [11] | BBC3 expression, % change relative to DMSO control [11] | CCDN1 expression, % change relative to DMSO control [11] | also measured
1 | O=C1CCCN1c1ccc(S(=O)(=O)N2CCCc3ccccc32)cc1 [Compound 1, 1-(4-(3,4-dihydroquinolin-1(2H)-ylsulfonyl)phenyl)pyrrolidin-2-one] | 100 | 20 | 40 | 49 | 96 | 157 | 90 | 30 | > 5000 | > 5000 | > 5000 | −42 | −70 | −78 | −72 | −50 | −70 | −10% | −55% | +50% | EC50 ([1]; Homo sapiens, HEK-293T cells, SuperTOPFlash stimulated by Wnt3a conditioned media, read-out: inhibition of Wnt transcriptional activity, EC50): ~25 nM; Relative potency for Wnt inhibition [1]: +++ (between 40 to 60% potency compared to IWR-1); FOS expression, % change relative to DMSO control [11]: −70%; JUN expression, % change relative to DMSO control [11]: +125%; MYC expression, % change relative to DMSO control [11]: −25%; BAK expression, % change relative to DMSO control [12]: +75%; BAX expression, % change relative to DMSO control [12]: +5%; BBC3 expression, % change relative to DMSO control [12]: −80%; CCDN1 expression, % change relative to DMSO control [12]: +40%; FOS expression, % change relative to DMSO control [12]: −70%; JUN expression, % change relative to DMSO control [12]: +525%; MYC expression, % change relative to DMSO control [12]: −45%
2 | CC1CCc2ccccc2N1S(=O)(=O)c1ccc(N2CCCC2=O)cc1 (stereo not shown) [Compound 4, 1-(4-(2-methyl-3,4-dihydroquinolin-1(2H)-ylsulfonyl)phenyl)pyrrolidin-2-one] | 250 | 40 | 100 | 117 | 143 | 17 | 87 | 52 | > 5000 | > 5000 | > 5000 | −50 | −65 | −80 | −25 | −45 | −55 | +25% | −40% | +100% | Relative potency for Wnt inhibition [1]: ++++ (between 60 to 80% potency compared to IWR-1); FOS expression, % change relative to DMSO control [10]: +100%; BAX expression, % change relative to DMSO control [11]: +75%; FOS expression, % change relative to DMSO control [11]: −85%; JUN expression, % change relative to DMSO control [11]: +50%; MYC expression, % change relative to DMSO control [11]: −5%; BAK expression, % change relative to DMSO control [12]: +110%; BBC3 expression, % change relative to DMSO control [12]: −90%; CCDN1 expression, % change relative to DMSO control [12]: −5%; FOS expression, % change relative to DMSO control [12]: −85%; JUN expression, % change relative to DMSO control [12]: +725%; MYC expression, % change relative to DMSO control [12]: −75%
3 | CN1CCN(S(=O)(=O)c2ccc(N3CCCC3=O)cc2)c2ccccc21 [Compound 15, 1-(4-(4-methyl-3,4-dihydroquinoxalin-1(2H)-ylsulfonyl)phenyl)pyrrolidin-2-one] | 25 | 20 | 15 | 32 | 15 | 32 | 124 | 9 | > 5000 | > 5000 | > 5000 | −20 | −62 | −65 | −22 | −38 | −50 | +45% | +75% | +50% | inhibition of Wnt transcriptional activity, IC50 (class symbol) ([1]; tested simultaneously with p53 reporter): ++++ (between 60 to 80% potency compared to IWR-1); FOS expression, % change relative to DMSO control [10]: −10%; BAX expression, % change relative to DMSO control [11]: −25%; FOS expression, % change relative to DMSO control [11]: −75%; JUN expression, % change relative to DMSO control [11]: +150%; MYC expression, % change relative to DMSO control [11]: −50%; BAK expression, % change relative to DMSO control [12]: +98%; BAX expression, % change relative to DMSO control [12]: −5%; BBC3 expression, % change relative to DMSO control [12]: −95%; CCDN1 expression, % change relative to DMSO control [12]: +25%; FOS expression, % change relative to DMSO control [12]: −84%; JUN expression, % change relative to DMSO control [12]: +775%; MYC expression, % change relative to DMSO control [12]: −70%
